Data on one compound can be found in article PMC3651934 (2011).

Molecules are shown by their SMILES.

Holding throughout (test): ITC
A general note: In ITC the heat of successive injections is recorded.

For assay [1], the system named is SAM-I riboswitch A1nC, G2nU, G3nU (RNA, riboswitch) GGCUUAUCAAGAGAGGUUUCGGGACUGGCCCGACGAAACCCGGCAACCAGAAAUGGUGCCAAUUCCUGCAGCGGAAACGUUGAAAGAUGAGCCG
To be noted: 100 mM KCl, 10 mM MgCl2; 50 mM HEPES pH 7.5, 30 °C; 100 μM SAM titrated into 10 μM RNA; no heat evolved.

The test system of assay [2] is SAM-I riboswitch G2nC (RNA, riboswitch) GGCUUAUCAAGAGAGGUGCAGGGACUGGCCCGACGAAACCCGGCAACCAGAAAUGGUGCCAAUUCCUGCAGCGGAAACGUUGAAAGAUGAGCCG
To be noted: 100 mM KCl, 10 mM MgCl2; 50 mM HEPES pH 7.5, 30 °C; 100 μM SAM titrated into 10 μM RNA; no heat evolved.

Assay [3] has as its system SAM-I riboswitch A1nU (RNA, riboswitch) GGCUUAUCAAGAGAGGUGGUGGGACUGGCCCGACGAAACCCGGCAACCAGAAAUGGUGCCAAUUCCUGCAGCGGAAACGUUGAAAGAUGAGCCG
To be noted: 100 mM KCl, 10 mM MgCl2; 50 mM HEPES pH 7.5, 30 °C; 100 μM SAM titrated into 10 μM RNA; no heat evolved.

For assay [4], the system named is SAM-I riboswitch, natural k-turn (RNA, riboswitch) GGCUUAUCAAGAGAGGUGGAGGGACUGGCCCGACGAAACCCGGCAACCAGAAAUGGUGCCAAUUCCUGCAGCGGAAACGUUGAAAGAUGAGCCG
To be noted: 100 mM KCl, 10 mM MgCl2; 50 mM HEPES pH 7.5, 30 °C.

The subject of assay [5] is SAM-I riboswitch G2nU, G3nU (RNA, riboswitch) GGCUUAUCAAGAGAGGUUUAGGGACUGGCCCGACGAAACCCGGCAACCAGAAAUGGUGCCAAUUCCUGCAGCGGAAACGUUGAAAGAUGAGCCG
To be noted: 100 mM KCl, 10 mM MgCl2; 50 mM HEPES pH 7.5, 30 °C.

Assay [6] relates to SAM-I riboswitch G3nU (RNA, riboswitch) GGCUUAUCAAGAGAGGUUGAGGGACUGGCCCGACGAAACCCGGCAACCAGAAAUGGUGCCAAUUCCUGCAGCGGAAACGUUGAAAGAUGAGCCG
To be noted: 100 mM KCl, 10 mM MgCl2; 50 mM HEPES pH 7.5, 30 °C.

Assay [7] deals with SAM-I riboswitch G2nA (RNA, riboswitch) GGCUUAUCAAGAGAGGUGAAGGGACUGGCCCGACGAAACCCGGCAACCAGAAAUGGUGCCAAUUCCUGCAGCGGAAACGUUGAAAGAUGAGCCG
To be noted: 100 mM KCl, 10 mM MgCl2; 50 mM HEPES pH 7.5, 30 °C.

Assay [8] deals with SAM-I riboswitch A1nC (RNA, riboswitch) GGCUUAUCAAGAGAGGUGGCGGGACUGGCCCGACGAAACCCGGCAACCAGAAAUGGUGCCAAUUCCUGCAGCGGAAACGUUGAAAGAUGAGCCG
To be noted: 100 mM KCl, 10 mM MgCl2; 50 mM HEPES pH 7.5, 30 °C; 100 μM SAM titrated into 10 μM RNA; no heat evolved.

What is called Kd is the equilibrium constant for the complex coming apart. Read a high Kd as lower affinity. On to `C[S+](CC[C@H](N)C(=O)O)C[C@H]1O[C@@H](n2cnc3c(N)ncnc32)[C@H](O)[C@@H]1O` (some centres unmarked), for which the binding entry in assay [1], in assay [2], in assay [3] and in assay [8] was “no” in each case. Moreover, the equilibrium dissociation constant (Kd) in assay [4] came to 540 ± 250 nM; in assay [5] it was 1950 ± 270 nM; in assay [6], 340 ± 40 nM; in assay [7], 310 ± 60 nM.
